Converted amounts (≈) assume the structure as drawn. “Also recorded” adds a separate entry of the source.
Columns and labels:
Assay type in all cases: physicochemical
[1] = Chemical stability experiment (HPLC purity after storage); details: for reduction of chemical purity after storage: dry condition (desiccator) at 60° C. for 7 days; for Purity (%): dry condition at 60° C., HPLC
Method: HPLC purity data were collected on Ultimate 3000 high performance liquid chromatography under the following conditions: column AY-H (4.6*100 mm, 5 μm) detection wavelength 270 nm, column temperature 40° C., flow rate 0.8 mL/min, injection volume 5 μL. The sample was dissolved in ethanol to make a solution concentration about 1 mg/mL, and a gradient method using HPLC measurements to determine the purity of the sample. […]

[2] = Crystalline form stability experiment (XRD after storage); details: stored 7 days at high temperature 60° C., high moisture content 97% RH, and 40° C.-75% RH
Method: X-ray powder diffraction (XRPD): performed on Bruker D8 Advance diffractometer. Samples were tested at room temperature. Testing conditions: scan range 3-40° 2θ, step size 0.02°2θ, and speed 0.2 s/step.
Crystalline form stability experiment: 15 mg of amorphous ODM-201, ODM-201 Form 1, ODM-201 Form 2, ODM-201 Form 4 and ODM-201 Form 5 in the present invention were respectively placed under the following different conditions: high temperature 60° C., high moisture content 97% RH, and 40° C.-75% RH. The samples were stored for 7 days before analyzed by XRD crystalline form measurements.

[3] = Isothermal sorption / dynamic vapor sorption (hygroscopicity); details: between 0% RH and 80% RH
Method: Dynamic vapor sorption data and isothermal sorption data were collected on TA Instruments Q5000 TGA. Method: A sample of 1 to 10 mg was placed in a platinum pan; the weight change of the sample during the change in relative humidity from 0% to 80% to 0% was measured.

[4] = Apparent water solubility; details: stirred 1 hour
Method: ODM-201 Form 1, ODM-201 Form 2, ODM-201 Form 3, ODM-201 Form 4 and ODM-201 Form 5 in the present invention were tested for the apparent water solubility, and the specific operations were as follows.
Weighed accurately and placed 15 mg of sample in a 20 mL glass vial containing 5 mL of water, and placed the vials at 25±2° C. and 37±2° C. water bath respectively, stirred in dark (about 200 rpm/min) for 1 hour, filtered with a 0.45 µm filter and took the supernatant, diluted to a certain concentration, analyzed the concentration by HPLC.

| Purity (%) ([1]; 1 day) | Purity (%) ([1]; 7 days) | moisture sorption (weight change) [3] | Solubility ([4]; 37 ± 2° C.) [µg/mL] | Solubility ([4]; 25 ± 2° C.) [µg/mL] | The test results after 7 days (crystalline form by XRD) ([2]; listed as ODM-201 amorphous form) | Structure (SMILES) | reduction of chemical purity after storage [1] | The test results after 7 days (crystalline form by XRD) [2] |
| --- | --- | --- | --- | --- | --- | --- | --- | --- |
| 99.7 | 99.6 | less than 0.3% | 17.4 (≈ 43.6 µM) | – | – | CC(O)c1cc(C(=O)N[C@@H](C)Cn2ccc(-c3ccc(C#N)c(Cl)c3)n2)n[nH]1 (stereo partly drawn) [ODM-201 Form 1, N—((S)-1-(3-(3-chloro-4-cyanophenyl)-1H-pyrazol-1-yl)prop-2-yl)-5-(1-hydroxyethyl)-1H-pyrazole-3-carboxamide] | essentially unchanged; also recorded: still kept their original respective purity level | keeps its form unchanged; also recorded: kept their original crystalline forms; also recorded: Form 1 |
| – | – | – | 24.3 (≈ 60.9 µM) | 12.5 (≈ 31.3 µM) | – | CC(O)c1cc(C(=O)N[C@@H](C)Cn2ccc(-c3ccc(C#N)c(Cl)c3)n2)[nH]n1 (stereo partly drawn) [ODM-201 Form 3, N—((S)-1-(3-(3-chloro-4-cyanophenyl)-1H-pyrazol-1-yl)prop-2-yl)-5-(1-hydroxyethyl)-1H-pyrazole-3-carboxamide] | – | – |
| 99.7 | 98.2 | 6.4% | – | – | began to show a weak crystalline state | CC(O)c1cc(C(=O)N[C@@H](C)Cn2ccc(-c3ccc(C#N)c(Cl)c3)n2)n[nH]1 (stereo partly drawn) [amorphous ODM-201, N—((S)-1-(3-(3-chloro-4-cyanophenyl)-1H-pyrazol-1-yl)prop-2-yl)-5-(1-hydroxyethyl)-1H-pyrazole-3-carboxamide, reference compound] | more than 1% | begins to show a weak crystalline state; also recorded: Amorphous with weak crystalline peaks |

Second part, the compound before the results:

| Structure (SMILES) | Purity (%) ([1]; 1 day) | Purity (%) ([1]; 7 days) | moisture sorption (weight change) [3] | Solubility ([4]; 37 ± 2° C.) [µg/mL] | Solubility ([4]; 25 ± 2° C.) [µg/mL] | The test results after 7 days (crystalline form by XRD) ([2]; listed as ODM-201 amorphous form) | reduction of chemical purity after storage [1] | The test results after 7 days (crystalline form by XRD) [2] |
| --- | --- | --- | --- | --- | --- | --- | --- | --- |
| CC(O)c1cc(C(=O)N[C@@H](C)Cn2ccc(-c3ccc(C#N)c(Cl)c3)n2)n[nH]1 (stereo partly drawn) [ODM-201 Form 2, N—((S)-1-(3-(3-chloro-4-cyanophenyl)-1H-pyrazol-1-yl)prop-2-yl)-5-(1-hydroxyethyl)-1H-pyrazole-3-carboxamide] | 99.6 | 99.6 | 2.5% | 54.8 (≈ 137 µM) | 27.6 (≈ 69.2 µM) | – | still kept their original respective purity level; also recorded: essentially unchanged | kept their original crystalline forms; also recorded: keeps its form unchanged; also recorded: Form 2 |
| CC(O)c1cc(C(=O)N[C@@H](C)Cn2ccc(-c3ccc(C#N)c(Cl)c3)n2)n[nH]1 (stereo partly drawn) [ODM-201 Form 4, N—((S)-1-(3-(3-chloro-4-cyanophenyl)-1H-pyrazol-1-yl)prop-2-yl)-5-(1-hydroxyethyl)-1H-pyrazole-3-carboxamide] | 99.2 | 99.1 | less than 0.2% | 88.6 (≈ 222 µM) | 59.5 (≈ 149 µM) | – | still kept their original respective purity level; also recorded: essentially unchanged | kept their original crystalline forms; also recorded: keeps its form unchanged; also recorded: Form 4 |
| CC(O)c1cc(C(=O)N[C@@H](C)Cn2ccc(-c3ccc(C#N)c(Cl)c3)n2)n[nH]1 (stereo partly drawn) [ODM-201 Form 5, N—((S)-1-(3-(3-chloro-4-cyanophenyl)-1H-pyrazol-1-yl)prop-2-yl)-5-(1-hydroxyethyl)-1H-pyrazole-3-carboxamide] | 99.6 | 99.5 | less than 0.5% | 29.5 (≈ 74 µM) | 17.7 (≈ 44.4 µM) | – | still kept their original respective purity level; also recorded: essentially unchanged | kept their original crystalline forms; also recorded: keeps its form unchanged; also recorded: Form 5 |

From patent publication US11236073B2, “ODM-201 crystalline form, preparation method therefor, and pharmaceutical composition thereof” (Hangzhou SoliPharma Co., Ltd., priority 2017, dated 2022)
